Reference: PMC10458458, “Characterization of Anticancer Effects of the Analogs of DJ4, a Novel Selective Inhibitor of ROCK and MRCK Kinases” (Pharmaceuticals, 2023)
“Also recorded” adds a separate entry of the source.

Columns and labels:
CCRF-CEM = experiment: NCI-60 screen (SRB); type: cell-based, human; conditions: CCRF-CEM (Leukemia), 10 µM, 48 h; negative = cell death vs time zero
In short: (§1)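 Steps: seed cells, incubate 24 h, fix a time-zero set with trichloroacetic acid; treat remaining cells with 10 µM compound for 48 h; fix and stain with sulphorhodamine B. Values express growth relative to control taken as 100%.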

HOP-62 = experiment: NCI-60 screen (SRB); type: cell-based, human; conditions: HOP-62 (Non-Small Cell Lung Cancer), 10 µM, 48 h; negative = cell death vs time zero
In short: as §1

MDA-MB-231 = experiment: MTT cell growth assay, 48 h; type: cell-based, human; conditions: for IC50: Homo sapiens, MDA-MB-231, 48 h, 2000 cells/well, ±SE, read-out: IC50 from MTT assays
Procedure: However, as the concentration increased from 2.5 µM onwards, the effect was reversed. Similarly, DJ-Morpholine decreased the cell growth by ~30% at 0.6215 µM, while the effect remained saturated as the concentration increased. This trend was also observed in A549 lung cancer and A375M melanoma cells.
Figure 7 DJ4 analogs reduce cell growth in melanoma, breast, and lung cancer cells. MTT assay was performed to evaluate the effect of DJ4 analogs on cell growth after 48 h of treatment. IC50 values were calculated with nonlinear least squares regression curve fit by GraphPad prism. […] The error bars indicate SD from triplicates of the experiment.
The cytotoxic effect of DJ4 was studied in H1299, H226, A549, H522, H23, and H460 non-small cell lung cancer cells. The cells were seeded into 96-well plates with confluence ([…]). The cells were further treated with DMSO or DJ4 for 72 h. To study the effects of analogs, A549, A375M, and MDA-MB-231 cells were plated with low density (2000 cells/well) in a 96-well plate and grown overnight at 37 °C (with 5% CO2). Cells were treated with the analogs at the concentration of 0–10 µM for 48 h. At the end of the treatment period, cells were incubated with a tetrazolium dye MTT (3-(4,5-dimethylthiazol-2-yl)-2,5-diphenyltetrazolium bromide) reagent (Sigma) at 37 °C for 3 h to develop formazan crystals. The media was siphoned off and crystals were dissolved in DMSO and mixed gently on rocker for 5 min. Absorbance was read at 570 nm and 630 nm (background) wavelength. IC50 values were calculated from non-linear regression curve fit by using GraphPad Prism 5.0 software.

[1] = Solubility in 100% DMSO (observation); type: physicochemical
[2] = system: NCI-60 human cancer cell line panel; experiment: NCI-60 single concentration screen, whole panel; type: cell-based; conditions: single concentration 10 µM
Description: The selected active compounds were screened at NCI, as a part of In Vitro Cell Line Screening Project (IVCLSP), for their effect on cell growth in 60 different cancer cell lines. The 60 human cancer cell line panel included leukemia, melanoma, non-small cell lung cancer, colon, central nervous system (CNS), ovarian, renal, prostate, and breast cancer cell lines. The detailed procedure and applications of NCI-60 cell line screening can be found at https://dtp.cancer.gov/discovery_development/nci-60/default.htm (accessed on 9 January 2023). Briefly, cells were plated in 96-well plates and incubated for 24 h. One set of cells was fixed with trichloroacetic acid at time 0 h (Tz), and SRB (sulphorhodamine B) assays were performed to quantify the cells. The remaining set of cells were treated with 10 µM single concentration of each compound and incubated for 48 h (Te) after which the cells were fixed, and the SRB assays were performed. Data are presented as percent growth relative to the control as 100% according to the following calculations:
When Te >/= Tz. Growth(%)=Te−Tz/C−Tz∗100 and when Te < Tz. (1) Growth(%)=Te−Tz/Tz∗100
Values between 0–100 indicate cell growth, zero (0) indicates no cell growth, values < 0 indicate cell death.

[3] = Solubility in culture media at 10 µM (observation); type: physicochemical; conditions: NCI-60 screening
Procedure: To study the effectiveness of these analogs in a vast range of cancer cell lines, the compounds were subjected to cell viability screening in the NCI-60 human cancer cell line panel representing nine different cancer types (Supplementary Figure S2). Testing of the compounds in such a wide range of cancer types helps identify sensitivity and selectivity of specific types of cancers to the novel compounds. The initial screening was performed at a single concentration of 10 µM. At 10 µM, both DJ110 and DJ-Morpholine were insoluble and were, therefore, ineffective. The parental DJ4 compound was effective in a wide spectrum of cancer cell lines, with breast cancer, NSCLC, and central nervous system cancers displaying the most consistent response. The ovarian cancer cell line NCI/ADR-RES and HCC-2998 colon cancer cells were relatively resistant to DJ4 (IC50 > 10 µM) (Supplementary Figure S2). […] NCI/ADR-RES (ovarian), RPMI-8226, and K-562 (leukemia) cell lines were relatively resistant (29%, 29%, 26% increase in cell number) to DJE4. […] Two CNS cell lines, SNB-75 and SF-539, were the most sensitive in which DJ-Allyl induced the cell death (60% reduction in cell number). NCI/ADR-RES (ovarian), MALME-3M (melanoma), HCC-2998 (colon), RPMI-8226, and K-562 (leukemia) were relatively resistant (~40% increase in cell number) to DJ-Allyl. […]

Row | Structure (SMILES) | percent cell growth (CCRF-CEM) | percent cell growth (HOP-62) | IC50 (MDA-MB-231) | solubility in 100% DMSO [1] | effectiveness in NCI-60 screening [2] | solubility at 10 µM in culture media [3] | decrease in cell growth (MDA-MB-231; MDA-MB-231, 0.6215 µM, 48 h, effect saturated at higher concentrations)
1 | Cl.O=C1NC(=NCCc2ccccc2)SC1=Cc1c[nH]c2ncccc12 (mixture of isomers) [DJ4-HCl] | 5.5% | −3.0% | – | – | – | – | –
2 | O=C1N/C(=N\CCc2ccccc2)S/C1=C/c1c[nH]c2ncccc12 [DJ4] | 9.9% | 19.9% | 2.3 ± 0.23 µM | much better solubility | – | – | –
3 | O=C1N/C(=N\Cc2ccccc2)S/C1=C/c1c[nH]c2ncccc12 [DJ110] | – | – | 0.65 ± 0.07 µM | poor solubility | ineffective | insoluble; also recorded: sparingly soluble | –
4 | C=CC/N=C1\NC(=O)/C(=C\c2c[nH]c3ncccc23)S1 [DJ-Allyl] | 7.1% | −10.8% | 4.1 ± 1.23 µM | much better solubility | – | – | –
5 | O=C1N/C(=N\CCN2CCOCC2)S/C1=C/c1c[nH]c2ncccc12 [DJ-Morpholine] | – | – | > 10 µM | poor solubility | ineffective | insoluble; also recorded: sparingly soluble | ~ 30%
6 | CC/N=C1\NC(=O)/C(=C\c2c[nH]c3ncccc23)S1 [DJE4] | 3.0% | −26.5% | 5.9 ± 1.63 µM | much better solubility | – | – | –
